Data taken from patent US6787650B1, “Urea compounds, process for producing the same and use thereof” (Takeda Chemical Industries, Ltd., priority 1999, dated 2004).
Counter-ions that a name gives are not always drawn.

Assays:
[1] = target: T1, human CCR5 (Homo sapiens, UniProt P51681); test: Inhibition of [125I]-RANTES binding to CHO/CCR5 cells (CCR5 antagonistic activity); details: 1.0 μM test compound, 100 pM [125I]-RANTES, room temperature, 40 minutes; for inhibition at 1 µM: read-out: Inhibition Rate (%) at 1.0 μM
T1 construct: expressed in transfected cells
T1 sequence (P51681 whole entry): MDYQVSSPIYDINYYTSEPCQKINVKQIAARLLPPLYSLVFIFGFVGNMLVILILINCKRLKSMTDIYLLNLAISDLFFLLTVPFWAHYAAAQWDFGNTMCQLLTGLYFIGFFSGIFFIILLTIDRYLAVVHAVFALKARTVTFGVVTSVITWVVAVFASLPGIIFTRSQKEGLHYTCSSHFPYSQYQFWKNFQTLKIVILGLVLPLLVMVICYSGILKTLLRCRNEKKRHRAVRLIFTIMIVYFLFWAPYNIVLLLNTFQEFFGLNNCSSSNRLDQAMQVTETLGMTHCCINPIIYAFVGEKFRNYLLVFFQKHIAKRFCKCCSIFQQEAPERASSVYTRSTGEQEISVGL
Description: Cloning of CCR5 gene was carried out by PCR (polymerase chain reaction) from human spleen cDNA. With using 0.5 ng of spleen cDNA (Toyobo, QUICK-Clone cDNA) as a template, PCR was performed in DNA Thermal Cycler 480 (Perkin-Elmer) (reaction conditions: 30 cycles of 95° C. for 1 minute, 60° C. for 1 minute, and 75° C. for 5 minutes) by adding primer set, 5′-[…]-3′ (25 pmol) and 5′-[…]-3′ (25 pmol), which were designed referring to nucleotide sequence of CCR5 gene reported by Samson et al. (Biochemistry, 35 (11), 3362-3367 (1996)) and by using TaKaRa EX Taq (Takara Shuzo). The resultant PCR product was subjected to agarose gel electrophoresis to collect about 1.0 kb DNA fragment, which was subjected to Original TA Cloning Kit (Funakoshi) to carry out cloning of CCR5 gene.
The plasmid obtained in the above (1) was digested with restriction enzymes XbaI (Takara Shuzo) and BamHI (Takara Shuzo) and subjected to agarose gel electrophoresis to collect about 1.0 kb DNA fragment. The DNA fragment was mixed with plasmid pcDNA3.1 (Funakoshi) for expression in animal cells, said plasmid being digested with XbaI and BamHI, and they were ligated with DNA Ligation Kit Ver.2 (Takara Shuzo). The resulting plasmid was subjected to transformation of competent cell of E. coli JM109 (Takara Shuzo) to give plasmid pCKR5.
CHO-K1 cells were grown in 750 ml of tissue culture flask (Becton Dickinson) using Ham's F12 medium (Nihon Pharmaceutical) containing 10% fetal calf serum (Life Tech Oriental) and took off with 0.5 g/L trypsin-0.2 g/L EDTA (Life Tech Oriental). The cells were washed with PBS (Life Tech Oriental), centrifuged (1000 rpm, 5 minutes), and suspended in PBS. With using Gene Pulser (Bio-Rad Laboratories), DNA was introduced into the cells under the conditions shown below. That is, to the cuvette having 0.4 cm gap were added 8×10^6 cells and 10 μg of plasmid pCKR5 for expression of human CCR5, and electroporation was carried out under 0.25 kV of voltage and 960 μF of capacitance. The cells were transferred into Ham's F12 medium containing 10% fetal calf serum, and cultivated for 24 hours. The cells were again took off and centrifuged, and suspended in Ham's F12 medium containing 10% fetal calf serum and 500 μg/ml of geneticin (Life Tech Oriental). The suspension was diluted to give 10^4 cells/ml of the suspension, which was inoculated on 96 well plate (Becton Dickinson) to give geneticin resistant cells.
Then, the resulting geneticin resistant cells were cultivated in 96 well plate (Becton Dickinson), and cells expressing CCR5 were selected from the geneticin resistant cells. That is, in an assay buffer (Ham's F12 medium containing 0.5% BSA and 20 mM HEPES (Wako Pure Chemical, pH 7.2) to which was added 200 pM of [^125I]-RANTES (Amersham) as a ligand, binding reaction was carried out at room temperature for 40 minutes, and the buffer was washed with ice-cooled PBS. To the buffer was added 50 μl/well of 1M NaOH, and the mixture was stirred. Radioactivity was determined with γ-counter to select CHO/CCR5 cells which specifically bound with the ligand.
(4) Evaluation of Test Compounds Based on CCR5 Antagonistic Activity
The CHO/CCR5 were inoculated on 96 well microplate (5×10^4 cells/well) and cultivated for 24 hours. The medium was removed by means of suction, and to each well was added assay buffer containing Test Compound (1 μl) and then 100 pM of [^125I]-RANTES (Amersham) as a ligand. The reaction was carried out at room temperature for 40 minutes, and assay buffer was removed by means of suction. Each well was washed twice with cooled PBS, and 200 μl of Microscinti-20 (Packard Instrument, Inc.) was added to each well. Radioactivity was determined with Top-Count Micro Scintillation Counter (Packard Instrument, Inc.).
According to the method described above, the inhibition rate of the test compounds for CCR5 binding was determined.

[2] = system: HIV-1 Ba-L; test: Inhibitory effect on HIV-1 infection to MAGI-CCR5 cell; assay type: cell-based; details: Human immunodeficiency virus 1, BAL, 48 h; final concentration 0.16 μM; MAGI-CCR5 cells; 300PFU HIV-1 Ba-L; 37° C., 2 days; blue cells counted
Description: (5) Inhibitory Effect on HIV-1 Infection to MAGI-CCR5 Cell
The plasmid where β-galactosidase gene was ligated to the downstream of HIV-1 LTR was introduced into CD4 positive HeLa cell, to which human CCR^5 was further introduced to obtain transformant MAGI-CCR5. By using said transformant MAGI-CCR5, the degree of HIV-1 infection was calculated from β-galactosidase activity (blue color due to decomposition of 5-bromo-4-chloro-3-indolyl-β-D-galactopyranoside). Specifically, MAGI-CCR5 cells were suspended in DMEM medium containing 10% serum to prepare 5×10^4 cells/ml suspension. To each well of 96 well plate was inoculated 200 μl of the suspension, and the cells were cultivated at 37° C. overnight. The medium was removed by means of suction, and to the residue was added 100 μl of the above medium containing 0.32 μM of Test Compound and 100 μl of the above medium containing 300PFU of HIV-1 Ba-L cells. The final concentration of the test compound was 0.16 μM. The cells were cultivated at 37° C. for 2 days. The medium was removed by means of suction. To the residue was added 200 μl of cell fixative (PBS containing 1% formaldehyde and 0.2% glutaraldehyde), and the mixture was allowed to stand at room temperature for 5 minutes and washed twice with PBS. […] The number of blue cells was counted by microscope and defined as the number of cells infected with HIV-1.

melting point [°C] | inhibition at 1 µM [1] [%] | Structure (SMILES) | further results
– | 92 | O=C(Nc1ccc(Cl)cc1)N(CCCN1CCC(Cc2ccc(F)cc2)CC1)c1ccc(Cl)c(Cl)c1 [Example 12, N′-(4-Chlorophenyl)-N-(3,4-dichlorophenyl)-N-{3-[4-(4-fluorobenzyl)-1-piperidinyl]propyl}urea] | –
106 to 108 | – | O=C(NC1CCCCC1)N(CCCN1CCC(Cc2ccccc2)CC1)c1ccccc1 [Example 6, N-[3-(4-Benzyl-1-piperidinyl)propyl]-N′-cyclohexyl-N-phenylurea] | –
124 to 127 | 67 | O=C(Nc1cccc2ccccc12)N(CCCN1CCC(Cc2ccccc2)CC1)c1ccccc1 [Example 13, N-[3-(4-Benzyl-1-piperidinyl)propyl]-N′-(1-naphthyl)-N-phenylurea] | –
– | – | O=C(Nc1ccc(Cl)cc1)N(CCCN1CCC(Cc2ccccc2)CC1)c1ccccc1 [Example 76, N-[3-(4-Benzyl-1-piperidinyl)propyl]-N′-(4-chlorophenyl)-N-phenylurea hydrochloride] | inhibition at 0.16 µM [2]: 98%
– | – | CS(=O)(=O)c1ccc(CC2CCN(CCCN(C(=O)Nc3ccc(Cl)cc3)c3ccccc3)CC2)cc1.Cl [Example 72, N′-(4-Chlorophenyl)-N-(3-{4-[4-(4-methylsulfonyl)benzyl]-1-piperidinyl}propyl)-N-phenylurea hydrochloride] | Inhibition Rate (%) at 1.0 μM [1]: 94%
– | 92 | CCCNC(=O)N(CCCN1CCC(Cc2ccccc2)CC1)c1ccccc1 [Example 7, N-[3-(4-Benzyl-1-piperidinyl)propyl]-N-phenyl-N′-propylurea] | –
– | 98 | O=C(Nc1ccc(Cl)cc1)N(CCCN1CCC(Cc2ccc(S(=O)(=O)N3CCOCC3)cc2)CC1)c1ccccc1 [Example 71, N′-(4-Chlorophenyl)-N-(3-{4-[4-(4-morpholinylsulfonyl)benzyl]-1-piperidinyl}propyl)-N-phenylurea hydrochloride] | –
– | 96 | O=C(Nc1ccccc1)N(CCCN1CCC(Cc2ccccc2)CC1)c1ccccc1 [Example 1, N-[3-(4-Benzyl-1-piperidinyl)propyl]-N-phenyl-N′-phenylurea hydrochloride] | –
– | 100 | Cc1ccc(N(CCCN2CCC(Cc3ccccc3)CC2)C(=O)Nc2ccc(Cl)cc2)cc1 [Example 10, N-[3-(4-Benzyl-1-piperidinyl)propyl]-N′-(4-chlorophenyl)-N-(4-methylphenyl)urea hydrochloride] | –

Structure (SMILES) | melting point [°C] | inhibition at 1 µM [1] [%] | further results
O=C(Nc1ccc(Cl)cc1)N(CCCN1CCC(Cc2ccccc2)CC1)c1ccccc1 [Example 2, N-[3-(4-Benzyl-1-piperidinyl)propyl]-N′-(4-chlorophenyl)-N-phenylurea] | 101 to 103 | – | –
